From patent publication US10988477B2 (Merck Patent GmbH, priority 2018, dated 2021)
pIC50, pKi: −log10 of the molar value.

Key:
GCN2 kinase = GCN2 kinase (Homo sapiens, UniProt Q9P2K8); assay: GCN2 enzyme inhibition assay (Transcreener ADP2 fluorescence polarization); assay type: biochemical; details: 280 μM ATP
Outline: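 ADP formation read by Transcreener FP after a 1 h, 25 °C kinase reaction containing 280 μM ATP, 200 μM (RS)7 substrate and 4 nM GCN2, pH 7.5 Tris buffer. Compounds (0–8 μM final) were added 10 min before ATP. Percent inhibition gave IC50 and apparent Ki via tight-binding fit.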

[1] = molecular target: intracellular GCN2 (phosphorylation of the GCN2 substrate eIF2α) (Homo sapiens, UniProt Q9P2K8); assay: GCN2 cellular inhibition assay (AlphaScreen SureFire P-eIF2α Ser51, borrelidin-treated U2OS cells); assay type: cell-based; details: biomarker assay, phosphorylated eIF2α Ser51 in borrelidin-treated U2OS cells
Outline: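 U2OS cells adhered overnight, then treated with compounds (4-fold serial dilutions from 40 μM final) plus borrelidin 10 μM final for 1 h at 37 °C. Lysate eIF2α Ser51 phosphorylation measured by AlphaScreen SureFire. Percent inhibition calculated relative to borrelidin-only wells.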

[2] = Enzyme activity for compounds of Formula IV, Ki(app), 25° C.
[3] = compounds of Formula II, 4 nM GCN2 kinase

intracellular GCN2 (phosphorylation of the GCN2 substrate eIF2α), sequence (Q9P2K8 whole entry): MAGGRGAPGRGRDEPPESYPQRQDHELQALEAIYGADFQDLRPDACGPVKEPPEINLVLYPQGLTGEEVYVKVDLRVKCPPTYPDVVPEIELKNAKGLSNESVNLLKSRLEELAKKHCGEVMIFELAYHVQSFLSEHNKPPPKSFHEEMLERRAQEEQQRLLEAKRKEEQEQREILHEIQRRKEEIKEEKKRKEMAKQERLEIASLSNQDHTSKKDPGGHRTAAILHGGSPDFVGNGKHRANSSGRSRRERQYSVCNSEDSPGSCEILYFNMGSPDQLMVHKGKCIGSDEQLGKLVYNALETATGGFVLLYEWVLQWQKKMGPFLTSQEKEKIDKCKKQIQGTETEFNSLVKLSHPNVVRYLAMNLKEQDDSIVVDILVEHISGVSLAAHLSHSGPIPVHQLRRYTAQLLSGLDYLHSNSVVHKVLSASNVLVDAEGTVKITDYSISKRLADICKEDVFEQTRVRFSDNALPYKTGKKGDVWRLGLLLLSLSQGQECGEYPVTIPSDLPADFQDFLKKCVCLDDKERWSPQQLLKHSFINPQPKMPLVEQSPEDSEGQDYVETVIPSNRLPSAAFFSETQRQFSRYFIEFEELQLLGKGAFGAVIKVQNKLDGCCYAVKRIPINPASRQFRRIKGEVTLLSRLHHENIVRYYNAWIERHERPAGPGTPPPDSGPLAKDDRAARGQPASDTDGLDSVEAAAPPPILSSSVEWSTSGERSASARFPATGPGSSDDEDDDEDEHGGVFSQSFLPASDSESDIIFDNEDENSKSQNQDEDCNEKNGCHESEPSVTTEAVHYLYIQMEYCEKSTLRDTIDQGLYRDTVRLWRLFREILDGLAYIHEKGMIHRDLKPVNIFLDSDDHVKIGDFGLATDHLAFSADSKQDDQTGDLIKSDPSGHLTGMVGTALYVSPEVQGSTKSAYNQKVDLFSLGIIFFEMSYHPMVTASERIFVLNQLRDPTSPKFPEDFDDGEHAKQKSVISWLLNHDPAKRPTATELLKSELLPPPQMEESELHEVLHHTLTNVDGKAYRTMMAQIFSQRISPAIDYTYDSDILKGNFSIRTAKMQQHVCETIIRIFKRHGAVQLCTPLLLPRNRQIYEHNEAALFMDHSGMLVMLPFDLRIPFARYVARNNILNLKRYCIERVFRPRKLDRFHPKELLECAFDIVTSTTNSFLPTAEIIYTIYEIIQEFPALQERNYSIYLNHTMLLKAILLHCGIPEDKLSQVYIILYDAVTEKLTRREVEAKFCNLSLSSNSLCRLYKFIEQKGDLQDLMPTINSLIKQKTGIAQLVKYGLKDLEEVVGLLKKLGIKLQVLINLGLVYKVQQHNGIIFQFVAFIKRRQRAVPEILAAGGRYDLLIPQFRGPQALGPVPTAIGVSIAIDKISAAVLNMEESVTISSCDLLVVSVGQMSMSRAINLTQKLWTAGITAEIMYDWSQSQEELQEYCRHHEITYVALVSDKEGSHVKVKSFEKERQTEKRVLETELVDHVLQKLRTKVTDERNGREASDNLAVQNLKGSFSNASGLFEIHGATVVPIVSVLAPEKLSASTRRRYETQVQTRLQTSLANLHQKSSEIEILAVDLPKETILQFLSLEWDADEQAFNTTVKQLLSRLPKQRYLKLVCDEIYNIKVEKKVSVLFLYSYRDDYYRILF
GCN2 kinase, sequence (Q9P2K8 whole entry): as above

SMILES	pKi (GCN2 kinase; [2])	pIC50 ([1]; compounds of Formula IV)	pKi (GCN2 kinase; [3])	pIC50 ([1]; compounds of Formula II)
NC(=O)C1CN(c2ccnc(-c3cnc4cnc(C(F)(F)F)cn34)n2)CC(F)(F)C1 (centres unmarked) [IV-582, 5,5-Difluoro-1-(2-(6-(trifluoromethyl)imidazo[1,2-a]pyrazin-3-yl)pyrimidin-4-yl)piperidine-3-carboxamide]	7.00 to 8.00	5.30 to 6.30		
CS(=O)(=O)CCN1CCCC(c2cc(-c3cnc4ccc(C(F)F)nn34)ncn2)C1 (centres unmarked) [II-48, 6-(Difluoromethyl)-3-(6-(1-(2-(methylsulfonyl)ethyl)piperidin-3-yl)pyrimidin-4-yl)imidazo[1,2-b]pyridazine]			6.00 to 8.00	< 5.30
NS(=O)(=O)N1CC2CCCN(c3cc(-c4cnc5ccc(C(F)F)nn45)ncn3)C2C1 (centres unmarked) [II-335, 1-(6-(6-(Difluoromethyl)imidazo[1,2-b]pyridazin-3-yl)pyrimidin-4-yl)octahydro-6H-pyrrolo[3,4-b]pyridine-6-sulfonamide]			6.00 to 8.00	< 5.30
CS(=O)(=O)NC1CCCN(c2ccnc(-c3cnc4cnc(C(F)F)cn34)n2)CC1 (centres unmarked) [IV-124]	6.00 to 7.00	< 5.30		
CC1C(c2cn[nH]c2)NCCN1c1ccnc(-c2cnc3cnc(C(F)F)cn23)n1 (centres unmarked) [IV-454, 6-(Difluoromethyl)-3-(4-(2-methyl-3-(1H-pyrazol-4-yl)piperazin-1-yl)pyrimidin-2-yl)imidazo[1,2-a]pyrazine]	7.00 to 8.00	5.30 to 6.30		
OCC1CCN(c2ccnc(-c3cnc4cnc(C(F)(F)F)cn34)n2)CC1 [IV-443, (1-(2-(6-(Trifluoromethyl)imidazo[1,2-a]pyrazin-3-yl)pyrimidin-4-yl)piperidin-4-yl)methanol]	6.00 to 7.00	< 5.30		
CC1CC(P(C)(C)=O)CN(c2cc(-c3cnc4ccc(C(F)F)nn34)ncn2)C1 (centres unmarked) [II-711, 6-(Difluoromethyl)-3-[6-(3-dimethylphosphoryl-5-methyl-1-piperidyl)pyrimidin-4-yl]imidazo[1,2-b]pyridazine]			6.00 to 8.00	5.30 to 6.30
CC1C(C(N)=O)CCCN1c1ccnc(-c2cnc3cnc(C(F)F)cn23)n1 (centres unmarked) [IV-109, 1-(2-(6-(Difluoromethyl)imidazo[1,2-a]pyrazin-3-yl)pyrimidin-4-yl)-2-methylpiperidine-3-carboxamide]	7.00 to 8.00	5.30 to 6.30		

The next lines start with the values.

pKi (GCN2 kinase; [2])	pIC50 ([1]; compounds of Formula IV)	pKi (GCN2 kinase; [3])	pIC50 ([1]; compounds of Formula II)	SMILES
> 8.00	> 6.30			FC(F)(F)c1cn2c(-c3nccc(N4CCCC(c5cn[nH]c5)C4)n3)cnc2cn1 (single isomer, unassigned) [IV-546, 3-(4-(3-(1H-Pyrazol-4-yl)piperidin-1-yl)pyrimidin-2-yl)-6-(trifluoromethyl)imidazo[1,2-a]pyrazine]
7.00 to 8.00	5.30 to 6.30			CC1CN(c2ccnc(-c3cnc4cnc(C(F)(F)F)cn34)n2)CC(c2cn[nH]c2)O1 (single isomer, unassigned) [IV-16, 2-Methyl-6-(1H-pyrazol-4-yl)-4-(2-(6-(trifluoromethyl)imidazo[1,2-a]pyrazin-3-yl)pyrimidin-4-yl)morpholine]
7.00 to 8.00	< 5.30			CS(C)(=O)=NC1CC(c2cn[nH]c2)CN(c2ccnc(-c3cnc4cnc(C(F)(F)F)cn34)n2)C1 (single isomer, unassigned) [IV-400, ((5-(1H-Pyrazol-4-yl)-1-(2-(6-(trifluoromethyl)imidazo[1,2-a]pyrazin-3-yl)pyrimidin-4-yl)piperidin-3-yl)imino)dimethyl-λ^6-sulfanone]
7.00 to 8.00	5.30 to 6.30			FC(F)(F)c1cn2c(-c3nccc(N4CCCC(c5cncs5)C4)n3)cnc2cn1 (centres unmarked) [IV-691, 5-(1-(2-(6-(Trifluoromethyl)imidazo[1,2-a]pyrazin-3-yl)pyrimidin-4-yl)piperidin-3-yl)thiazole]
6.00 to 7.00	< 5.30			Cc1cc(N2CC(C)NC(c3cn[nH]c3)C2C)nc(-c2cnc3cnc(C(F)(F)F)cn23)n1 (single isomer, unassigned) [IV-669, 3-(4-(2,5-Dimethyl-3-(1H-pyrazol-4-yl)piperazin-1-yl)-6-methylpyrimidin-2-yl)-6-(trifluoromethyl)imidazo[1,2-a]pyrazine]
